Measurements from article PMC3705371, “Helicusin E, Isochromophilone X and Isochromophilone XI: New Chloroazaphilones Produced by the Fungus Bartalinia robillardoides Strain LF550” (Marine Drugs, 2013).
Read-outs that look alike come from different tables or passages of the source.

Experiments:
Septoria tritici = assay: Antifungal assay, Septoria tritici (optical density); assay type: cell-based; conditions: for IC50: Zymoseptoria tritici, read-out: IC50 Septoria tritici
Experimental: Septoria tritici. The substances were dissolved in DMSO to a concentration of 10 mM and transferred into a 96-well microtiter plate. For screening purposes, the compounds were tested in a final concentration of 100 μM. The fungal strain S. tritici was cultured on MYG medium (1.0% malt extract, 0.4% yeast extract, 0.4% glucose·H2O, pH = 5.6) for four days, subsequently the culture was diluted to an optical density (600 nm) of 0.03 and added to the microtiter plate. After incubation for 48 h at 20 °C, the optical density was measured. The resulting values were compared to a positive (0.53 μM boscalid) and a negative control (no compound) on the same plate.

Staphylococcus lentus = assay: Antibacterial assay, Staphylococcus lentus; assay type: cell-based; conditions: for IC50: Mammaliicoccus lentus, antibacterial
Experimental: (§1) Bacillus subtilis, Staphylococcus lentus, Xanthomonas campestris and Candida albicans. The antimicrobial assays were performed as reported by Schulz et al..

Bacillus subtilis = assay: Antibacterial assay, Bacillus subtilis; assay type: cell-based; conditions: for IC50: Bacillus subtilis, antibacterial
Experimental: as §1

Acetylcholinesterase = Acetylcholinesterase (Homo sapiens, UniProt P22303); assay: biochemical; assay type: biochemical; conditions: for IC50: enzyme assay
Sequence of Acetylcholinesterase (P22303 32-614, species assumed): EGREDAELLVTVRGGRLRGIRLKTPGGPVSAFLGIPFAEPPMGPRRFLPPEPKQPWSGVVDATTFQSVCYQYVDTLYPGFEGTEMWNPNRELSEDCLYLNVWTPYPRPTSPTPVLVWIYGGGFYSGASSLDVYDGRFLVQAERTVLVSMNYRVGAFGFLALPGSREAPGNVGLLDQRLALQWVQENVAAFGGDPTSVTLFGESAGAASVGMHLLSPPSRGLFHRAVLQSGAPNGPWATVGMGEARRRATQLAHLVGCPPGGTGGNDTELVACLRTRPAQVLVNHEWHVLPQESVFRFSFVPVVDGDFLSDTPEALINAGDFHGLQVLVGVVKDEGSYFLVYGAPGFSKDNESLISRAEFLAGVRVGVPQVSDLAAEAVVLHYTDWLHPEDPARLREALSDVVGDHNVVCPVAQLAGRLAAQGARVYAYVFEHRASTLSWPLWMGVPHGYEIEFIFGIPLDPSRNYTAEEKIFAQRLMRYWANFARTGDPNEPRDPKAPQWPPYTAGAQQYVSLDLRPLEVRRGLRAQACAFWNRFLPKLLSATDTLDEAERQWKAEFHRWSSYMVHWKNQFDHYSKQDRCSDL
Experimental: (§2) Enzyme inhibition assays PDE4 and AChE assays were performed as described by Schulz et al. and Kim et al., respectively.

[1] = test system: human hepatocellular carcinoma cell line (HepG2); assay: Cytotoxicity assay (CellTiterBlue), HepG2; assay type: cell-based; conditions: HepG2 cells
Experimental: (§3) Cytotoxicity assays. The sensitivity of the cell lines KIF5 and HepG2 to the isolated compounds was evaluated by monitoring the metabolic activity using the CellTiterBlue Cell Viability Assay (Promega, Mannheim, Germany). The human fibroblast cell line (KIF5) was provided by the Institute for Experimental Tumor Research, Section Molecular Oncology, Kiel, Germany, and the human hepatocellular carcinoma cell line (HepG2) was obtained from the German Collection of Microorganism and Cell Cultures (DSMZ, Braunschweig, Germany). The cytotoxicity assays were performed as described by Schulz et al., apart from the cell concentration, which were 5000 KIF5 cells and 10,000 HepG2 cells per vial.

Candida albicans = assay: Antifungal assay, Candida albicans; assay type: cell-based; conditions: for IC50: antifungal
Experimental: as §1

Trichophyton rubrum = assay: Antifungal assay, Trichophyton rubrum (optical density); assay type: cell-based; conditions: for IC50: Trichophyton rubrum, antifungal, 72 h at 28 °C
Experimental: Trichophyton rubrum. The substances were dissolved in DMSO to a concentration of 10 mM and transferred into a 96-well microtiter plate. For screening purposes, the compounds were tested in a final concentration of 100 μM. For inoculation 5 × 10^4 spores mL^−1 from the fungal strain T. rubrum diluted in Sabouraud medium (1.0% peptone, 2.0% glucose·H2O, pH = 5.6) were added to the microtiter plate. After incubation for 72 h at 28 °C the optical density was measured.

[2] = test system: human fibroblast cell line (KIF5); assay: Cytotoxicity assay (CellTiterBlue), KIF5; assay type: cell-based; conditions: KIF5 cells
Experimental: as §3

Phosphodiesterase 4 = assay: Enzyme inhibition assay PDE4; assay type: biochemical; conditions: for IC50: enzyme assay
Experimental: as §2

MRSA = conditions: cited from earlier work

Row | Compound | IC50 (Staphylococcus lentus) | IC50 (Bacillus subtilis) | antibacterial activity against Staphylococcus lentus (in words) (Staphylococcus lentus) | inhibition of Candida albicans (in words) (Candida albicans) | antibacterial activity against Bacillus subtilis (in words) (Bacillus subtilis) | inhibition of Trichophyton rubrum (in words) (Trichophyton rubrum) | inhibition of Septoria tritici (in words) (Septoria tritici) | IC50 (Acetylcholinesterase) | IC50 (Candida albicans; Candida albicans) | IC50 (Trichophyton rubrum) | IC50 (Septoria tritici; antifungal, 48 h at 20 °C) | IC50 (Phosphodiesterase 4) | other results
1 | O=C(Nc1ccccc1-c1ccc(Cl)cc1)c1cccnc1Cl [boscalid, reference compound] |  |  |  |  |  |  |  |  |  |  |  |  | IC50 (Septoria tritici; 48 h): 0.53 µM
2 | O=C(N[C@H](CO)[C@H](O)c1ccc([N+](=O)[O-])cc1)C(Cl)Cl [chloram-phenicol, reference compound] | 2.13 µM | 1.45 µM |  |  |  |  |  |  |  |  |  |  | 
3 | CC=CC(=O)OC1CC(C)OC(=O)CCC(O)CC1=O (stereo not drawn) [compound 6, bartanolide] |  |  | inactive | inactive | inactive | inactive | inactive |  |  |  |  |  | inhibition of acetylcholinesterase (in words) (Acetylcholinesterase): inactive; cytotoxic activity (in words) [1]: inactive; cytotoxic activity (in words) [2]: inactive; inhibition of phosphodiesterase 4 (in words) (Phosphodiesterase 4): inactive
4 | CCC(C)C=C(C)C=CC1=CC2=C(Cl)C(=O)C(C)(O)C(=O)C2=CO1 (stereo not drawn) [deacetylsclerotiorin (2), 5-Chloro-3-[3,5-dimethyl-1,3-heptadien-1-yl]-7-hydroxy-7-methyl-6H-2-benzopyran-6,8(7H)-dione] | 43.6 µM | 38.8 µM | Weak | Significant inhibition | Weak | Significant inhibition | Significant inhibition | > 50 µM | 24 µM | 2.83 µM | 7.45 µM | 2.79 µM | IC50 (Phosphodiesterase 4; listed as 2): 2.8 µM
5 | CCC(C)/C=C(C)/C=C/C1=CC2=C(Cl)C(=O)[C@@](C)(OC(=O)/C=C(\C)CC(=O)O)C(=O)C2=CO1 (stereo partly drawn) [helicusin A (1), helicusin A] | > 100 µM | > 100 µM |  | Significant inhibition |  | Significant inhibition | Significant inhibition | 2.1 µM | 24.4 µM | 7.23 µM | 7.6 µM | > 10 µM | 
6 | CCC(C)C(O)C(C)(O)/C=C/C1=CC2=C(Cl)C(=O)[C@@](C)(OC(=O)/C=C(\C)CC(=O)O)C(=O)C2=CO1 (stereo partly drawn) [helicusin E (3), helicusin E] | > 100 µM | > 100 µM |  |  |  |  |  | > 50 µM | > 200 µM | > 100 µM | > 100 µM | > 10 µM | 
7 | CCC(C)/C=C(C)/C=C/C1=CC2=C(Cl)C(=O)C(C)(OC(C)=O)C(=O)C2=CN1CCCC(=O)O (stereo not drawn) [isochromophilone IX] |  |  |  |  |  |  |  |  |  |  |  |  | MIC (MRSA): approximately 100 μM
8 | CCC(C)/C=C(C)/C=C/C1=CC2=C(Cl)C(=O)[C@@](C)(OC(=O)/C=C(\C)CC(=O)O)C(=O)C2=CN1CCO (stereo partly drawn) [isochromophilone X (4), isochromophilone X] | > 100 µM | > 100 µM |  |  |  |  |  |  | > 100 µM | > 80 µM | > 100 µM | 11.7 µM | 
9 | CCC(C)/C=C(C)/C=C/C1=CC2=C(Cl)C(=O)C(C)(OC(=O)/C=C(\C)CC(=O)O)C(=O)C2(O)CO1 (stereo not drawn) [isochromophilone XI (5), isochromophilone XI] | 78.4 µM | 55.6 µM | Weak |  | Weak | weak activity |  | > 50 µM | > 100 µM | 41.5 µM | > 100 µM | 8.3 µM | 
10 | C[C@@H]1[C@H](O)[C@@H](C)/C=C/C=C/CC/C=C/C=C/C=C/C=C/C(O[C@H]2O[C@H](C)[C@@H](O)[C@H](N)[C@@H]2O)CC2O[C@](O)(CC(O)C(O)CCC(O)CC(O)CC(O)CC(=O)O[C@H]1C)CC(O)C2C(=O)O (stereo partly drawn) [nystatin, reference compound] |  |  |  |  |  |  |  |  |  |  |  |  | IC50 (Candida albicans): 5.8 µM
